Consider three compounds from patent US10800791B2, “Triazole ACC inhibitors and uses thereof” (Gilead Apollo, LLC, priority 2015, dated 2020).

SMILES strings stand for the structures. Converted amounts (≈) assume the structure as drawn. Where two headings read alike, the source gives them in different places. Some results are limits rather than exact numbers.

The target in assay [1] is human (hACC2) (Homo sapiens, UniProt O00763). Description: In vitro ACC inhibition assay (ADP-Glo), hACC2. The class given is biochemical. The conditions noted are these: 5 nM ACC2, 20 μM ATP, 20 μM acetyl-CoA. As to the method:
The detailed procedure is as follows. […] 10 μL ADP glo reagent was added. […] 20 μL kinase detection reagent was added.
(In general: ADP-Glo turns the ADP formed in a reaction into a luminescent signal.)

Assay [2] relates to C. albicans. In words: Antifungal Activity Assay (broth microtiter MIC), C. albicans. Type of assay: cell-based, Candida albicans. The conditions noted are these: Candida albicans, ATCC90028, 48 h. The essentials:
(§1)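 Endpoint: lowest concentration visibly inhibiting growth relative to control after 48 h. Inoculum of 2.5×10^3 CFU/mL final in RPMI 1640+MOPS, prepared from overnight 35° C agar cultures; test compounds diluted in water to 128 μg/mL before plating.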

Assay [3] relates to C. parapsilosis. In words: Antifungal Activity Assay (broth microtiter MIC), C. parapsilosis. The class given is cell-based, Candida parapsilosis. The conditions noted are these: Lodderomyces parapsilosis, ATCC22019, 48 h. The method in brief:
as §1

Assay [4] deals with Botrtyis cinerea (Bc). Description: Growth inhibition assay of fungal pathogens, Bc. The class given is cell-based. The conditions noted are these: 48 h. The method in brief:
(§2)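 Pathogen growth in 17% V8 broth is measured by OD600 at 24 and 48 hours, after blank subtraction, in the presence of compound at 50, 10 and 2 ppm or 2, 0.4 and 0.08 ppm. Inhibition in percent comes from 48-hour readings against the DMSO control.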

Assay [5] deals with Collectotrichum graminicola (Cg). Description: Growth inhibition assay of fungal pathogens, Cg. To be noted: 48 h. Type of assay: cell-based. The method in brief: as §2
Assay [6] has as its system Diplodia maydis (Dm). In words: Growth inhibition assay of fungal pathogens, Dm. To be noted: Stenocarpella maydis, 48 h. The class given is cell-based. The essentials: as §2
In assay [7] the test system is Phytophthora capsici (Pc). Description: Growth inhibition assay of fungal pathogens, Pc. The class given is cell-based. The conditions noted are these: 48 h. The method in brief:
as §2

In assay [8] the test system is Rhizoctonia solani (Rs). In words: Growth inhibition assay of fungal pathogens, Rs. The conditions noted are these: 48 h. The class given is cell-based.
Assay [9] deals with Septoria tritici (St). Description: Growth inhibition assay of fungal pathogens, St. Type of assay: cell-based. The conditions noted are these: Zymoseptoria tritici, 48 h. The method in brief:
as §2

Setting [10] is: Table 3a, ATCC 90028, 3 replicates, MIC recorded at 48 h, read-out: MIC, C. albicans ATCC 90028.
Where [11] appears, read: Table 3b (additional results), ATCC 90028, 3 replicates, MIC recorded at 48 h, read-out: MIC, C. albicans ATCC 90028.
Setting [12] is: Table 3a, ATCC 22019, 3 replicates, MIC recorded at 48 h, read-out: MIC, C. parapsilosis ATCC 22019.
Setting [13] is: Table 3b (additional results), ATCC 22019, 3 replicates, MIC recorded at 48 h, read-out: MIC, C. parapsilosis ATCC 22019.
The mark [14] stands for this setting: Botrtyis cinerea, growth inhibition at 48 hours vs 2% DMSO control, read-out: Concentration at 90% Inhibition Bc.
[15] abbreviates: Botrtyis cinerea, growth inhibition vs 2% DMSO control at 48 hours, read-out: Concentration at 90% Inhibition Bc.
The mark [16] stands for this setting: Collectotrichum graminicola, growth inhibition at 48 hours vs 2% DMSO control, read-out: Concentration at 90% Inhibition Cg.
[17] abbreviates: Collectotrichum graminicola, growth inhibition vs 2% DMSO control at 48 hours, read-out: Concentration at 90% Inhibition Cg.
Where [18] appears, read: Diplodia maydis, growth inhibition at 48 hours vs 2% DMSO control, read-out: Concentration at 90% Inhibition Dm.
The mark [19] stands for this setting: Diplodia maydis, growth inhibition vs 2% DMSO control at 48 hours, read-out: Concentration at 90% Inhibition Dm.
Setting [20] is: growth inhibition at 48 hours vs 2% DMSO control, read-out: Concentration at 90% Inhibition Pc.
Setting [21] is: growth inhibition vs 2% DMSO control at 48 hours, read-out: Concentration at 90% Inhibition Pc.
The mark [22] stands for this setting: mycelial plugs, growth inhibition at 48 hours vs 2% DMSO control, read-out: Concentration at 90% Inhibition Rs.
The mark [23] stands for this setting: mycelial plugs, growth inhibition vs 2% DMSO control at 48 hours, read-out: Concentration at 90% Inhibition Rs.
The mark [24] stands for this setting: Septoria tritici, growth inhibition at 48 hours vs 2% DMSO control, read-out: Concentration at 90% Inhibition St.
The mark [25] stands for this setting: Septoria tritici, growth inhibition vs 2% DMSO control at 48 hours, read-out: Concentration at 90% Inhibition St.

human (hACC2), sequence (O00763 whole entry): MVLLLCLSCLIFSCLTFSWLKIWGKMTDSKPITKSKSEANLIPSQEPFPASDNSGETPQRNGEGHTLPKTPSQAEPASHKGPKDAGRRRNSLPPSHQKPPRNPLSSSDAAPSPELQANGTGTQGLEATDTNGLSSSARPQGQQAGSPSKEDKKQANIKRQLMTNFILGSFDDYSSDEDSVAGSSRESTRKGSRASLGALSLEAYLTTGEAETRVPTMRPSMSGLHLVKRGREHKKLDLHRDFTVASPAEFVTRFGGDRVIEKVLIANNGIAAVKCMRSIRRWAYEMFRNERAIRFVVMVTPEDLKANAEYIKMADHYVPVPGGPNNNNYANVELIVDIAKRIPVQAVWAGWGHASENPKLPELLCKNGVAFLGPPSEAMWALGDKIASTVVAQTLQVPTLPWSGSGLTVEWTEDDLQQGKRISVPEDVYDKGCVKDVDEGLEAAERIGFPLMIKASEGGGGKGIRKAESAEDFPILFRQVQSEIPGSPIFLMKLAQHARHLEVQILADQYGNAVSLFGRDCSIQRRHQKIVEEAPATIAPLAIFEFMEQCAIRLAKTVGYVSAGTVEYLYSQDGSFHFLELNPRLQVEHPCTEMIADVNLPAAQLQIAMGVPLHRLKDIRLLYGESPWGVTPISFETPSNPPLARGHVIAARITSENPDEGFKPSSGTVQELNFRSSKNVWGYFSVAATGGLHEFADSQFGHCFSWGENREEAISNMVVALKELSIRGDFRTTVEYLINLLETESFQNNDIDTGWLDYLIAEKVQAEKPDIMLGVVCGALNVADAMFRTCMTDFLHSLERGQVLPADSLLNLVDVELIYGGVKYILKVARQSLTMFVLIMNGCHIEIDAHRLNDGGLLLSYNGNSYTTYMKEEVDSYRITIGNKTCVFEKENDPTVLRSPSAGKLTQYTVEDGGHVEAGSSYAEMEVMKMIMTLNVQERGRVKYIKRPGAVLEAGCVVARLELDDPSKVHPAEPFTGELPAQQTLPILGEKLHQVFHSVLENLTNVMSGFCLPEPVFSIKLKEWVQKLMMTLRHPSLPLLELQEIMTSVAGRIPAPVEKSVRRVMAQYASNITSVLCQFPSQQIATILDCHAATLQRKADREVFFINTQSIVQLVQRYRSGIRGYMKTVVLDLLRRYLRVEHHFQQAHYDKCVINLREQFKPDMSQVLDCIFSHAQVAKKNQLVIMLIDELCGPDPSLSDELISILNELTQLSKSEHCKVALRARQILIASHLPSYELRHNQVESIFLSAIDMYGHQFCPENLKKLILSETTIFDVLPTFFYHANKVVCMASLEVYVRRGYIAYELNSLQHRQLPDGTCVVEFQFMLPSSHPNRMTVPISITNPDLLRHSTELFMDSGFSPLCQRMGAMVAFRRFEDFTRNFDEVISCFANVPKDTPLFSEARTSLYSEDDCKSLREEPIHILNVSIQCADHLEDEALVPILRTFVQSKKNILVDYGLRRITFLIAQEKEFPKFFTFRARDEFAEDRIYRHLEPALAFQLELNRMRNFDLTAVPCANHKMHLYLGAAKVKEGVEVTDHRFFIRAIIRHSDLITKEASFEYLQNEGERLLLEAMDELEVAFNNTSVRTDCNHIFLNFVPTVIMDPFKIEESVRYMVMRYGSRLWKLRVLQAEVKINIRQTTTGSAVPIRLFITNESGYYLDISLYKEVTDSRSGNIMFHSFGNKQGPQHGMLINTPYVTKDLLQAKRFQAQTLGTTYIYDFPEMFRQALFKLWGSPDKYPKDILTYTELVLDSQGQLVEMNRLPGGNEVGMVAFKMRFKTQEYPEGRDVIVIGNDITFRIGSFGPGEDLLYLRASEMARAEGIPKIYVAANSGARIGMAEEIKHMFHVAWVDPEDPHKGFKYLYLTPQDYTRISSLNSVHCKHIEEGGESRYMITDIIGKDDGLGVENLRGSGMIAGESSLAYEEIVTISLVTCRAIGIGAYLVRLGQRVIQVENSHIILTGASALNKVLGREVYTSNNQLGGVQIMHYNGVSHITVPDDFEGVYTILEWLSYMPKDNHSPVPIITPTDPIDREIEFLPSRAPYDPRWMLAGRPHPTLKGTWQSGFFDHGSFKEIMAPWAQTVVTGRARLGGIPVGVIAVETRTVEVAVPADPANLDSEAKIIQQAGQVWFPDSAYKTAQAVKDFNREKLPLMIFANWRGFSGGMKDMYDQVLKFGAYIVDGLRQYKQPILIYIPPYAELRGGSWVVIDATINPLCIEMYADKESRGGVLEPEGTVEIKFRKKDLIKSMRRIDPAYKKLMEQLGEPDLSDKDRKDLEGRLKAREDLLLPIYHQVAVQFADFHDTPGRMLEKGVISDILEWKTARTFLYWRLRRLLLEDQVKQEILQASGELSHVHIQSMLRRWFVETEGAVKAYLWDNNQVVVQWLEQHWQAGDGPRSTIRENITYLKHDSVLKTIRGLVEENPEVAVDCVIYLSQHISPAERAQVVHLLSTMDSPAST

A word on the IC50: it is the point on the concentration scale where inhibition reaches its midpoint. Lower therefore signals higher potency. What is called MIC is the least concentration at which growth counts as inhibited. `COc1ccc(F)cc1[C@H](Cn1c(=O)n(C(C)(C)C(=O)N2CCCCC2)c(=O)c2c(C)c(-n3nccn3)sc21)OC1CCOCC1` [Compound I-24, (R)-1-(2-(5-fluoro-2-methoxyphenyl)-2-((tetrahydro-2H-pyran-4-yl)oxy)ethyl)-5-methyl-3-(2-methyl-1-oxo-1-(piperidin-1-yl)propan-2-yl)-6-(2H-1,2,3-triazol-2-yl)thieno[2,3-d]pyrimidine-2,4(1H,3H)-dione]: the half-inhibitory concentration (IC50) lay within 10 to 40 nM in [1] (Table 2a) and 10 to 40 nM in [1] (Table 2b, additional results). Further, the MIC in assay [2] (read-out: MIC, C. albicans ATCC 90028, Table 3a, 3 replicates, MIC recorded at 48 h) lay within 0.25 to 1 µg/mL (≈ 0.382 to 1.53 µM); in [2] (read-out: MIC, C. albicans ATCC 90028, Table 3b (additional results), 3 replicates, MIC recorded at 48 h), 0.25 to 1 µg/mL (≈ 0.382 to 1.53 µM); in assay [3] (read-out: MIC, C. parapsilosis ATCC 22019, Table 3a, 3 replicates, MIC recorded at 48 h), 0.25 to 1 µg/mL (≈ 0.382 to 1.53 µM); in assay [3] (read-out: MIC, C. parapsilosis ATCC 22019, Table 3b (additional results), 3 replicates, MIC recorded at 48 h) it was 0.25 to 1 µg/mL (≈ 0.382 to 1.53 µM). Further, the IC90 in assay [4] (read-out: Concentration at 90% Inhibition Bc, Botrtyis cinerea, growth inhibition at 48 hours vs 2% DMSO control) turned out to be 0.4 µg/mL (≈ 0.611 µM); in assay [4] (read-out: Concentration at 90% Inhibition Bc, Botrtyis cinerea, growth inhibition vs 2% DMSO control at 48 hours), 0.4 µg/mL (≈ 0.611 µM); in [5] (read-out: Concentration at 90% Inhibition Cg, Collectotrichum graminicola, growth inhibition at 48 hours vs 2% DMSO control) it was 0.08 µg/mL (≈ 0.122 µM); in assay [5] (read-out: Concentration at 90% Inhibition Cg, Collectotrichum graminicola, growth inhibition vs 2% DMSO control at 48 hours) it was 0.08 µg/mL (≈ 0.122 µM); in assay [6] (read-out: Concentration at 90% Inhibition Dm, Diplodia maydis, growth inhibition at 48 hours vs 2% DMSO control), 0.08 µg/mL (≈ 0.122 µM); in assay [6] (read-out: Concentration at 90% Inhibition Dm, Diplodia maydis, growth inhibition vs 2% DMSO control at 48 hours) it was 0.08 µg/mL (≈ 0.122 µM). Moreover, the IC90 in assay [7] (read-out: Concentration at 90% Inhibition Pc, Phytophthora capsici, growth inhibition at 48 hours vs 2% DMSO control) was > 50 µg/mL; in assay [7] (read-out: Concentration at 90% Inhibition Pc, Phytophthora capsici, growth inhibition vs 2% DMSO control at 48 hours) it was > 50 µg/mL; in [8] (read-out: Concentration at 90% Inhibition Rs, Rhizoctonia solani, mycelial plugs, growth inhibition at 48 hours vs 2% DMSO control), 0.08 µg/mL (≈ 0.122 µM); in assay [8] (read-out: Concentration at 90% Inhibition Rs, Rhizoctonia solani, mycelial plugs, growth inhibition vs 2% DMSO control at 48 hours), 0.08 µg/mL (≈ 0.122 µM); in assay [9] (read-out: Concentration at 90% Inhibition St, Septoria tritici, growth inhibition at 48 hours vs 2% DMSO control), 2 µg/mL (≈ 3.05 µM); in assay [9] (read-out: Concentration at 90% Inhibition St, Septoria tritici, growth inhibition vs 2% DMSO control at 48 hours), 10 µg/mL (≈ 15.3 µM).
On to `COc1ccc(F)cc1[C@H](Cn1c(=O)n(C(C)(C)C(=O)N2CC(O)C2)c(=O)c2c(C)c(-n3nccn3)sc21)OC1CCOCC1` [Compound I-26, (R)-1-(2-(5-fluoro-2-methoxyphenyl)-2-((tetrahydro-2H-pyran-4-yl)oxy)ethyl)-3-(1-(3-hydroxyazetidin-1-yl)-2-methyl-1-oxopropan-2-yl)-5-methyl-6-(2H-1,2,3-triazol-2-yl)thieno[2,3-d]pyrimidine-2,4(1H,3H)-dione], for which the IC50 in assay [1] (Table 2a) lay in the range of 10 to 40 nM; in [1] (Table 2b, additional results) it was 10 to 40 nM. In addition, the MIC in assay [2] (setting [10]) is 2.1 to 4 µg/mL (≈ 3.27 to 6.22 µM); in assay [2] (setting [11]) it was 1.01 to 2 µg/mL (≈ 1.57 to 3.11 µM); in [3] (setting [12]) it was 2.1 to 4 µg/mL (≈ 3.27 to 6.22 µM); in [3] (setting [13]) it was 1.01 to 2 µg/mL (≈ 1.57 to 3.11 µM). The IC90 in assay [4] (setting [14]) is 2 µg/mL (≈ 3.11 µM); in assay [4] (setting [15]) it was 2 µg/mL (≈ 3.11 µM); in assay [5] (setting [16]), 10 µg/mL (≈ 15.6 µM); in [5] (setting [17]), > 50 µg/mL; in [6] (setting [18]), 10 µg/mL (≈ 15.6 µM); in [6] (setting [19]), > 50 µg/mL. The IC90 in [7] (setting [20]) was > 50 µg/mL; in [7] (setting [21]) it was > 50 µg/mL; in [8] (setting [22]), 10 µg/mL (≈ 15.6 µM); in assay [8] (setting [23]), > 50 µg/mL; in [9] (setting [24]), > 50 µg/mL; in assay [9] (setting [25]), > 50 µg/mL.
For the compound `COc1ccc(F)cc1[C@H](Cn1c(=O)n(C(C)(C)C(N)=O)c(=O)c2c(C)c(-n3nccn3)sc21)OC1CCC(=O)CC1` [Compound I-31, (R)-2-(1-(2-(5-fluoro-2-methoxyphenyl)-2-((4-oxocyclo-hexyl)oxy)ethyl)-5-methyl-2,4-dioxo-6-(2H-1,2,3-triazol-2-yl)-1,4-dihydrothieno[2,3-d]pyrimidin-3(2H)-yl)-2-methylpropanamide], the IC50 was in the range of 5 to 10 nM in assay [1] (Table 2a) and 5 to 10 nM in assay [1] (Table 2b, additional results). Further, the minimal inhibitory concentration (MIC) lay within 0.25 to 1 µg/mL (≈ 0.418 to 1.67 µM) in [2] (setting [10]), 0.25 to 1 µg/mL (≈ 0.418 to 1.67 µM) in assay [2] (setting [11]), 1.1 to 2 µg/mL (≈ 1.84 to 3.34 µM) in assay [3] (setting [12]) and 2.01 to 4 µg/mL (≈ 3.36 to 6.68 µM) in assay [3] (setting [13]). Moreover, the IC90 in [4] (setting [14]) is 0.4 µg/mL (≈ 0.668 µM); in [4] (setting [15]), 0.4 µg/mL (≈ 0.668 µM); in assay [5] (setting [16]) it was 10 µg/mL (≈ 16.7 µM); in [5] (setting [17]), > 50 µg/mL; in [6] (setting [18]), 2 µg/mL (≈ 3.34 µM); in [6] (setting [19]), 10 µg/mL (≈ 16.7 µM). For the same compound, the IC90 was > 50 µg/mL in [7] (setting [20]); > 50 µg/mL in assay [7] (setting [21]); 2 µg/mL (≈ 3.34 µM) in [8] (setting [22]); 2 µg/mL (≈ 3.34 µM) in [8] (setting [23]); > 50 µg/mL in assay [9] (setting [24]); > 50 µg/mL in assay [9] (setting [25]).
